The structures appear in SMILES notation.

These results are taken from PMC3388080 (PLoS ONE, 2012).

For test [1], the target named is T1, 5-HT1B (Rattus norvegicus, UniProt P28564).
T1 construct: purchased CEREP
The experiment in a line: CEREP radioligand binding. The following applies: % of control specific binding. How it is done: (§1) SB-334867 was evaluated in a selectivity screen performed at CEREP (Paris, France). The screen consisted of binding assays on a panel of 79 target receptors. The specific binding (SB) of a radioligand to each target receptor was defined as the difference between the total binding and the nonspecific binding determined in the presence of a cold competitor in excess. […] Details on the CEREP screen are available from www.cerep.fr.

The target of test [2] is T2, 5-HT2C (h) (Homo sapiens, UniProt P28335).
T2 construct: purchased CEREP
T2 sequence (P28335 33-458): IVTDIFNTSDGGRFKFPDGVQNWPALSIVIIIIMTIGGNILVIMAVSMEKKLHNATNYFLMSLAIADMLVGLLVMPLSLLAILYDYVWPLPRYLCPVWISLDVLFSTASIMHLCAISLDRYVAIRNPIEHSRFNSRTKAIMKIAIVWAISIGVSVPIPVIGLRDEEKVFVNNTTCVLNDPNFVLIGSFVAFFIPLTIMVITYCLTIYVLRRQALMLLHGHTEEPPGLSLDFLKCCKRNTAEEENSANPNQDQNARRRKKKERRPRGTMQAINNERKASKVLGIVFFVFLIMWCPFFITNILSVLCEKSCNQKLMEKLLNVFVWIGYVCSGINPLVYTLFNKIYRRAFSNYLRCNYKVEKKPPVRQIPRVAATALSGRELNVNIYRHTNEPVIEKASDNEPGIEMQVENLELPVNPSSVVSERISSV
Description: CEREP radioligand binding. How it is done:
as §1

Test [3] has as its target T3, A2A (h) (Homo sapiens, UniProt P29274).
T3 construct: purchased CEREP
The experiment in a line: CEREP radioligand binding. How it is done:
as §1

For test [4], the target named is T4, AT1 (h) (Homo sapiens, UniProt P30556).
T4 construct: purchased CEREP
Description: CEREP radioligand binding. The following applies: % of control specific binding. How it is done: as §1

The target of test [5] is T5, CCKA (h) (CCK1) (Homo sapiens, UniProt P32238).
T5 construct: purchased CEREP
Description: CEREP radioligand binding. The following applies: % of control specific binding. How it is done: as §1

Test [6] addresses T6, CCR1 (h) (Homo sapiens, UniProt P32246).
T6 construct: purchased CEREP
The experiment in a line: CEREP radioligand binding. The following applies: % of control specific binding. How it is done:
as §1

Test [7] addresses T7, CGRP (h) (Homo sapiens, UniProt O60894+Q16602).
T7 construct: purchased CEREP
Description: CEREP radioligand binding. The following applies: % of control specific binding. How it is done:
as §1

Test [8] deals with T8, CXCR2 (h) (IL-8B) (Homo sapiens, UniProt P25025).
T8 construct: purchased CEREP
T8 sequence (P25025 whole entry): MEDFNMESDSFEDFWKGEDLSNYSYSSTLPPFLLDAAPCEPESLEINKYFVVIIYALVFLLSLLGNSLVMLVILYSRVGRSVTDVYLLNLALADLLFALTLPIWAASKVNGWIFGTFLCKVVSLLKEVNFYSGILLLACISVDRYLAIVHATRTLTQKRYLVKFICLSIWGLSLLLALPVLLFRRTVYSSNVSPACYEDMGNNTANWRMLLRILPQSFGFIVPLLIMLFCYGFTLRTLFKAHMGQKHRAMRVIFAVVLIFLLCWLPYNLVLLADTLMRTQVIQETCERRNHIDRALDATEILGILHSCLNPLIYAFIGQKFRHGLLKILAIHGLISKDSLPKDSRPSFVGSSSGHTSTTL
The experiment in a line: CEREP radioligand binding. The following applies: % of control specific binding. How it is done: as §1

For test [9], the system named is Ca2+ channel (L, verapamil site) (phenylalkylamines). Description: CEREP radioligand binding. The following applies: % of control specific binding. How it is done: as §1
In test [10] the test system is Cl- channel. The experiment in a line: CEREP radioligand binding. The following applies: % of control specific binding. How it is done:
as §1

For test [11], the target named is T9, D1 (h) (Homo sapiens, UniProt P21728).
T9 construct: purchased CEREP
Description: CEREP radioligand binding. The following applies: % of control specific binding. How it is done: as §1

In test [12] the target is T10, D2S (h) (Homo sapiens, UniProt P14416).
T10 construct: purchased CEREP
T10 sequence (P14416 1-414 isoform P14416-2): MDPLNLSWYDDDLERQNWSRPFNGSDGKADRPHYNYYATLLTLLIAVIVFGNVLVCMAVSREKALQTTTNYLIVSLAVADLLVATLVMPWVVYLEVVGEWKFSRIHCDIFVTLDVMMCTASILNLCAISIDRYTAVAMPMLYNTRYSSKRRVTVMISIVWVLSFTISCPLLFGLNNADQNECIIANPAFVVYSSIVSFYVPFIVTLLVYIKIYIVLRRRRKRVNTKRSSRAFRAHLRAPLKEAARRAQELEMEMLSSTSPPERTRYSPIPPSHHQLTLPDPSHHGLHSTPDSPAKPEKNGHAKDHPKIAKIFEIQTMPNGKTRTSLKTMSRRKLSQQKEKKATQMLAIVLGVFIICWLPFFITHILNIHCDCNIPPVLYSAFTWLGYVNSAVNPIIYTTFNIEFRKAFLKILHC
Description: CEREP radioligand binding. The following applies: % of control specific binding. How it is done: as §1

For test [13], the system named is GABA (non-selective). The experiment in a line: CEREP radioligand binding. The following applies: % of control specific binding. How it is done: as §1
Test [14] deals with T11, GAL1 (h) (Homo sapiens, UniProt P47211).
T11 construct: purchased CEREP
The experiment in a line: CEREP radioligand binding. The following applies: % of control specific binding. How it is done:
as §1

The target in test [15] is T12, GAL2 (h) (Homo sapiens, UniProt O43603).
T12 construct: purchased CEREP
The experiment in a line: CEREP radioligand binding. The following applies: % of control specific binding. How it is done:
as §1

In test [16] the target is T13, M2 (h) (Homo sapiens, UniProt P08172).
T13 construct: purchased CEREP
The experiment in a line: CEREP radioligand binding. The following applies: % of control specific binding. How it is done: as §1

For test [17], the target named is T14, MC4 (h) (Homo sapiens, UniProt P32245).
T14 construct: purchased CEREP
The experiment in a line: CEREP radioligand binding. The settings on record: % of control specific binding. How it is done: as §1

Test [18] addresses T15, MT1 (h) (Homo sapiens, UniProt P48039).
T15 construct: purchased CEREP
The experiment in a line: CEREP radioligand binding. The following applies: % of control specific binding. How it is done: as §1

For test [19], the target named is T16, NK1 (h) (Homo sapiens, UniProt P25103).
T16 construct: purchased CEREP
Description: CEREP radioligand binding. The settings on record: % of control specific binding. How it is done:
as §1

Test [20] has as its system PDGF. The experiment in a line: CEREP radioligand binding. The following applies: % of control specific binding. How it is done:
as §1

Test [21] has as its system SK+Ca channel. The experiment in a line: CEREP radioligand binding. The following applies: % of control specific binding. How it is done: as §1
The target in test [22] is T17, TRH1 (h) (Homo sapiens, UniProt P34981).
T17 construct: purchased CEREP
T17 sequence (P34981 whole entry): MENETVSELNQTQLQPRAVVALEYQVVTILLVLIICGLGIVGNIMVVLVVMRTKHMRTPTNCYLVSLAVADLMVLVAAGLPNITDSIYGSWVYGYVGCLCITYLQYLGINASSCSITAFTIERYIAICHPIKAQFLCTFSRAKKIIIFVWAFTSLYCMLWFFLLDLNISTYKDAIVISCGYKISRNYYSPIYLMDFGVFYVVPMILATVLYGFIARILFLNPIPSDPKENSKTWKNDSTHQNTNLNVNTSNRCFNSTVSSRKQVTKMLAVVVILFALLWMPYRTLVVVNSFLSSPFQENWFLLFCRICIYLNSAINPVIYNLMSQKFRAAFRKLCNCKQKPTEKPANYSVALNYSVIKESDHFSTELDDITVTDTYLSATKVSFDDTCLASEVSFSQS
Description: CEREP radioligand binding. The following applies: % of control specific binding. How it is done: as §1

For test [23], the target named is T18, V1a (h) (Homo sapiens, UniProt P37288).
T18 construct: purchased CEREP
T18 sequence (P37288 whole entry): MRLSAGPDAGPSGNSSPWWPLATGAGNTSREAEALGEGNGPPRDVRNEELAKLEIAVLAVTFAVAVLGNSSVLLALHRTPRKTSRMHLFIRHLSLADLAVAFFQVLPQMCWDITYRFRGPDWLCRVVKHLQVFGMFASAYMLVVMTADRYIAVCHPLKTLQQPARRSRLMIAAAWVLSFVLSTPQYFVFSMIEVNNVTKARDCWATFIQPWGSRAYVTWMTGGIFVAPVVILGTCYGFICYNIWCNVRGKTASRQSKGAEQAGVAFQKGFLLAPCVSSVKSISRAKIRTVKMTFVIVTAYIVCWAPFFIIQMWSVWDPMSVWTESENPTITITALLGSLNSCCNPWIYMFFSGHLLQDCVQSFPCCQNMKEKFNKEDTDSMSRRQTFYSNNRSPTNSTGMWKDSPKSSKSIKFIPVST
The experiment in a line: CEREP radioligand binding. The following applies: % of control specific binding. How it is done: as §1

Test [24] deals with T19, VIP1 (h) (VPAC1) (Homo sapiens, UniProt P32241).
T19 construct: purchased CEREP
T19 sequence (P32241 31-457): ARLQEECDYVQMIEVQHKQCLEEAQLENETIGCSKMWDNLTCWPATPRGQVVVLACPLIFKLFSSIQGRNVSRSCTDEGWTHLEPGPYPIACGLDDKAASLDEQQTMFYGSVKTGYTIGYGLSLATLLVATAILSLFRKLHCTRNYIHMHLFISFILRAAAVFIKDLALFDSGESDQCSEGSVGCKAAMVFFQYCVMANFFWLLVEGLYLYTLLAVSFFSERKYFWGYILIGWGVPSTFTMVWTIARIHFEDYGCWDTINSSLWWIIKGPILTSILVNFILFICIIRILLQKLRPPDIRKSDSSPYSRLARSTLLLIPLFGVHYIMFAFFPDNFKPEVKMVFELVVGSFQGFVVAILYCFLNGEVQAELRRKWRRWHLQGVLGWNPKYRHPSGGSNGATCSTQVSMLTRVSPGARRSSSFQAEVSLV
Description: CEREP radioligand binding. The following applies: % of control specific binding. How it is done: as §1

Test [25] has as its target T20, Y1 (h) (Homo sapiens, UniProt P25929).
T20 construct: purchased CEREP
Description: CEREP radioligand binding. The settings on record: % of control specific binding. How it is done: as §1

Test [26] relates to alpha 1 (non-selective). The experiment in a line: CEREP radioligand binding. The settings on record: % of control specific binding. How it is done:
as §1

The target of test [27] is T21, beta 2 (h) (Homo sapiens, UniProt P07550).
T21 construct: purchased CEREP
T21 sequence (P07550 whole entry): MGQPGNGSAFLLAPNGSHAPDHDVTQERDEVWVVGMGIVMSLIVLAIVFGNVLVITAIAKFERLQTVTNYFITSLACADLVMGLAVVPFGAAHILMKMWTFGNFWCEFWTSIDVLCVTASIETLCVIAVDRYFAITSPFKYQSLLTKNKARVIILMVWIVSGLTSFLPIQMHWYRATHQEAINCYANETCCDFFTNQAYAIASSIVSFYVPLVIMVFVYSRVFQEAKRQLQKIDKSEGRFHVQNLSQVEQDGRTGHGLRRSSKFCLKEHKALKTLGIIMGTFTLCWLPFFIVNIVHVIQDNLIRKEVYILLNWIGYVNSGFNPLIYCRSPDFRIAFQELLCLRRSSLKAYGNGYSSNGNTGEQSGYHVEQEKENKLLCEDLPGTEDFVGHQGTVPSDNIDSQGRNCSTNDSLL
Description: CEREP radioligand binding. The settings on record: % of control specific binding. How it is done:
as §1

The target in test [28] is T22, kappa (KOP) (guinea-pig) (Cavia porcellus, UniProt P41144).
T22 construct: purchased CEREP
Description: CEREP radioligand binding. The following applies: % of control specific binding. How it is done:
as §1

The test system of test [29] is sst (non-selective). Description: CEREP radioligand binding. The following applies: % of control specific binding. How it is done: as §1
In test [30] the test system is TNF-alpha (h). The experiment in a line: CEREP radioligand binding. The following applies: % of control specific binding. Also on record: species or system human. How it is done: as §1
Test [31] concerns the target T23, rHCRTR2 (Rattus norvegicus, UniProt P56719).
T23 construct: expressed in transfected cells; host or cells: HEK293 (transient transfection, pCI-Neo vector), membrane preparation
The experiment in a line: Inhibition of [^3H]almorexant binding to HEK293-rHCRTR2 membranes. The text has this:
The rat cDNAs encoding HCRTR1 (Accession No. P56718) and HCRTR2 (Accession No. P56719) were subcloned into pCI-Neo expression vectors (Promega, Madison, WI) and used to transfect HEK293 cells (acquired commercially from ATCC-LGC, Molsheim, France) as previously described.

For test [32], the target named is T24, HCRTR1 (Rattus norvegicus, UniProt P56718).
T24 construct: from tissue; host or cells: coronal brain sections of male Sprague-Dawley rats (locus coeruleus)
T24 sequence (P56718 1-416): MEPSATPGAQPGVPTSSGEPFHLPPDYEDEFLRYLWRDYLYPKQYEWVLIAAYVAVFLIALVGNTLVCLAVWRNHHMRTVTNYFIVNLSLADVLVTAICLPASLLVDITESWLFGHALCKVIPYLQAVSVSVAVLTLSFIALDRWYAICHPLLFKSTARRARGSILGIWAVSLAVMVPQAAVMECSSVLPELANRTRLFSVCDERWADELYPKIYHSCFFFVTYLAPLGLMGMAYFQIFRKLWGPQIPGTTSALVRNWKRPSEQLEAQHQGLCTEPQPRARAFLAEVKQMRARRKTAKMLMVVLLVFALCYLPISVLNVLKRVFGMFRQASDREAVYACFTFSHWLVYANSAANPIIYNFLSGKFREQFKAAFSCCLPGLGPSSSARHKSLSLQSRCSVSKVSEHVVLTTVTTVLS
The experiment in a line: in vivo. The class given is in vivo.

The target in test [33] is hHCRTR2. Also on record: method as in PMID 9821961. The following applies: 37°C; cited from earlier work.

T3 sequence (P29274 whole entry): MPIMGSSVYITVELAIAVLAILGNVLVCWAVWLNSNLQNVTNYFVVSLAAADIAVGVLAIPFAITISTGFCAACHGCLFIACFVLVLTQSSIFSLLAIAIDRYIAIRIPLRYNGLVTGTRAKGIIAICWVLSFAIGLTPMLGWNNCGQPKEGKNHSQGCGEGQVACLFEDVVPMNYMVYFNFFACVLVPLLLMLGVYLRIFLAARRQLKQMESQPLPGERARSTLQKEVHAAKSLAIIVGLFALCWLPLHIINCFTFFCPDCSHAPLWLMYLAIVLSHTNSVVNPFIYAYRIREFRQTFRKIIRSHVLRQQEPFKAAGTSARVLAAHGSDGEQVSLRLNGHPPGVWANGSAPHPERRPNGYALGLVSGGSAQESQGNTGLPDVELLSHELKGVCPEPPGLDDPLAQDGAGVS
T6 sequence (P32246 whole entry): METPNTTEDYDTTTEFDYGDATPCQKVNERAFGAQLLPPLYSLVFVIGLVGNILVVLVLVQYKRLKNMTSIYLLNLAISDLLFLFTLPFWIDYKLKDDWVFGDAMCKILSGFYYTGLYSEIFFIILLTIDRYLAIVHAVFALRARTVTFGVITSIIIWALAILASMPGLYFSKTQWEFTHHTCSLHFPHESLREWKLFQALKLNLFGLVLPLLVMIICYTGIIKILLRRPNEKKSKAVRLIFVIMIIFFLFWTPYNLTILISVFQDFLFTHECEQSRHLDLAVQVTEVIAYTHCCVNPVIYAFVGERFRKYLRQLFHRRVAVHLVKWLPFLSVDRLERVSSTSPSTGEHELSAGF
T15 sequence (P48039 whole entry): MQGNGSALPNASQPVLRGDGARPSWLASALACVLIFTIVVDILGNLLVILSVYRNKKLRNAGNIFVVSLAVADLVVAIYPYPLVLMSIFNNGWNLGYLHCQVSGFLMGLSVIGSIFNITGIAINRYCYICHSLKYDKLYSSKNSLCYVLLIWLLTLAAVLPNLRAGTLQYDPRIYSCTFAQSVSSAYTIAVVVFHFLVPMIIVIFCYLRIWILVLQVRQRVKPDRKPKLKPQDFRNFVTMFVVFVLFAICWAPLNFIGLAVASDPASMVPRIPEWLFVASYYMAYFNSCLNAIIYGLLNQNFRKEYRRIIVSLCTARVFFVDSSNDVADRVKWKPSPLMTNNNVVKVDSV
T23 sequence (P56719 whole entry): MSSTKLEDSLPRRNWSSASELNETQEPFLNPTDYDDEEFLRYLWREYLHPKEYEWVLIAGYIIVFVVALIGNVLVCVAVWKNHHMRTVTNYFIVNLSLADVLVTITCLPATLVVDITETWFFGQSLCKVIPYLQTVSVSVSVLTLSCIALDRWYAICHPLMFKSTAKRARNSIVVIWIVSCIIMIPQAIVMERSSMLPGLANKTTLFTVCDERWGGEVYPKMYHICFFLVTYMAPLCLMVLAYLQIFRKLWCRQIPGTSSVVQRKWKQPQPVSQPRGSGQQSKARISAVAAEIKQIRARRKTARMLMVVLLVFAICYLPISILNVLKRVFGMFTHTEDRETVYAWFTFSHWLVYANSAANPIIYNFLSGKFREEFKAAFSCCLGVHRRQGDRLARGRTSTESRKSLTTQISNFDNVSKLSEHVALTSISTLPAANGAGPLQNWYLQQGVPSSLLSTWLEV
T20 sequence (P25929 whole entry): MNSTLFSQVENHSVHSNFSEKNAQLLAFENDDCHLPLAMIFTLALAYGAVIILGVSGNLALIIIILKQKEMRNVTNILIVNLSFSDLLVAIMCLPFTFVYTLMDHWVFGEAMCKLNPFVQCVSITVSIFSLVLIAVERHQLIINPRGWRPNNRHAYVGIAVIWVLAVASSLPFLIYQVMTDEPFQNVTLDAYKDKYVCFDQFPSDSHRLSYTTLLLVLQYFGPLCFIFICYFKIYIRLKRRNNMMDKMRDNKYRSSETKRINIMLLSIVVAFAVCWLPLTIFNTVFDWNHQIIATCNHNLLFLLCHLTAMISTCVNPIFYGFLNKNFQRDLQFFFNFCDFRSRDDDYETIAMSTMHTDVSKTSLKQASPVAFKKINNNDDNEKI

`Cc1nc2ccc(NC(=O)Nc3ccnc4cccnc34)cc2o1.Cl` [SB-334867, 1-(2-methylbenzoxazol-6-yl)-3-[1], [5]naphthyridin-4-yl-urea hydrochloride]: the “% Control (10 µM) Mean SB” value in test [1] is given as 85.9%; in [2] (% of control specific binding) it was 30.4%; in test [3] (% of control specific binding), 10.6%; in test [4], 102.3%; in test [5] it was 108.8%; in test [6], 94.5%. Besides, the “% Control (10 µM) Mean SB” value is listed as 103.6% in [7]; 110.5% in test [8]; 92.3% in [9]; 90.6% in test [10]; 82.7% in test [11]; 101.2% in [12]. Further, the “% Control (10 µM) Mean SB” value in [13] is on record as 105.5%; in [14], 118.5%; in test [15] it was 97.3%; in test [16], 87.3%; in test [17], 97.9%; in test [18], 102.4%. Further, the “% Control (10 µM) Mean SB” value in test [19] amounted to 104.4%; in test [20], 102.6%; in [21], 114.4%; in test [22], 118.5%; in [23], 106.1%; in [24], 101%. In addition, the “% Control (10 µM) Mean SB” value in [25] is 102.7%; in test [26], 87.5%; in test [27], 94.6%; in test [28] it was 100.8%; in [29], 88.9%; in test [30], 96.8%. Moreover, the “displacement of specific binding” value amounted to 70% in test [2] (10 µM, 5HT2C (serotonin 2C)) and 89% in test [3] (10 µM, A2A (adenosine)).

In turn, `CNC(=O)[C@@H](c1ccccc1)N1CCc2cc(OC)c(OC)cc2[C@@H]1CCc1ccc(C(F)(F)F)cc1` [almorexant, (2R)-2-[(1S)-6,7-Dimethoxy-1-[2-(4-trifluoromethyl-phenyl)-ethyl]-3,4-dihydro-1H-isoquinolin-2-yl]-N-methyl-2-phenyl-acetamide] had a Ki in test [31] of 2 nM. Further, in test [32] (in vivo), the “HCRTR1 RO” value was 50–60%; the “HCRTR1 RO (in words)” value is “returned to basal levels”; the “HCRTR1 RO, maximum” value is on record as 59%. Moreover, the receptor occupancy at 30 mg/kg in test [32] (ip, read-out: HCRTR1 occupancy) was approximately 50%. In addition, the Ki in [33] is 0.9 nM.

Usually Ki stands for a measure of affinity in units of concentration, obtained from inhibition or displacement.
